From PMC10895678 (Journal of Medicinal Chemistry, 2024) come the findings set out here.

The test system of data set [1] is M. smegmatis. The experiment in a line: MIC determination, resazurin end point assay, M. smegmatis. Format: cell-based, Mycobacterium smegmatis. Particulars: Mycolicibacterium smegmatis; for MIC50: read-out: MIC50 smegmatis.
Data set [2] relates to M. tuberculosis H37Rv. The experiment in a line: MIC, resazurin microtiter assay (REMA), H37Rv. The settings on record: Mycobacterium tuberculosis, drug-sensitive reference strain, read-out: M. tb H37Rv MIC99. The class given is cell-based. Here is the method:
The previously described resazurin microtiter assay (REMA) plate method was used.[73],[74] Compounds were two-fold serially diluted in CAMR Mycobacterium Medium MOD2 (CMM MOD2).[75] Individual wells, in a 96-well plate, were inoculated with 1 × 10^6 CFU mL^–1 bacilli and incubated for 7 days at 37 °C with agitation (200 rpm). Following this, resazurin solution was added to wells (0.02% (w/v) in PBS pH 7.4, supplemented with 5% Tween 80).[76] The 96-well plates were incubated at room temperature for 6 h. The OD570nm of each well was recorded using a Tecan Sunrise plate reader. The minimum inhibitory concentration (MIC99) was calculated using a modified Gompertz function.[77] The optical density measurements for each drug concentration were compared to vehicle control to determine the percentage reduction in bacterial optical density.
Background: The colour change of resazurin is a common sign of viable cells or microbes.

Data set [3] concerns M. tuberculosis 1192/015. The experiment in a line: microbe, parasite or virus in culture. The class given is cell-based. The settings on record: Mycobacterium tuberculosis, 1192/015, read-out: M. tb 1192/015 MIC99.
Data set [4] is described as follows: Mouse PPB, rapid equilibrium dialysis. Format: in vitro ADME. Particulars: mouse plasma (100%), RED, 37 °C. Here is the method:
Compounds were solubilized (10 mM in DMSO), and rapid equilibrium dialysis (RED) was used to measure the percentage binding to mouse plasma protein of the BGAz compounds at a final concentration of 5 μM. The BGAz compound was incubated in 100% mouse plasma and dialyzed against buffer in a RED device for 4 h at 37 °C in a 5% CO2 incubator, with continuous shaking at 200 rpm. Samples were matrix-matched and analyzed by LC-MS/MS against a six-point standard curve prepared with 100% plasma. All experiments were performed in triplicate.
Background: In equilibrium dialysis only unbound substance equilibrates across the membrane.

Data set [5] in a line: Mouse microsomal clearance. The class given is in vitro ADME. Particulars: 0.5 mg/mL mouse microsomes. Here is the method:
Compounds were solubilized (10 mM in DMSO). 1 μM of BGAz compound was incubated with 0.5 mg/mL mouse microsomes in the presence or absence of the Phase 1 cofactor NADPH (1 mM) at 37 °C for 0, 5, 10, 15, and 30 min. The disappearance of the BGAz compound was assessed by LC-MS/MS. All experiments were performed with two replicates per compound and were validated by the inclusion of up to three species-specific control compounds. Data output consists of mean intrinsic clearance (CLint) and half-life (t1/2) measurements.

The target in data set [6] is T1, CYP1A2 (Homo sapiens, UniProt P05177).
T1 construct: from tissue; host or cells: human liver microsomes
T1 sequence (P05177 1-516): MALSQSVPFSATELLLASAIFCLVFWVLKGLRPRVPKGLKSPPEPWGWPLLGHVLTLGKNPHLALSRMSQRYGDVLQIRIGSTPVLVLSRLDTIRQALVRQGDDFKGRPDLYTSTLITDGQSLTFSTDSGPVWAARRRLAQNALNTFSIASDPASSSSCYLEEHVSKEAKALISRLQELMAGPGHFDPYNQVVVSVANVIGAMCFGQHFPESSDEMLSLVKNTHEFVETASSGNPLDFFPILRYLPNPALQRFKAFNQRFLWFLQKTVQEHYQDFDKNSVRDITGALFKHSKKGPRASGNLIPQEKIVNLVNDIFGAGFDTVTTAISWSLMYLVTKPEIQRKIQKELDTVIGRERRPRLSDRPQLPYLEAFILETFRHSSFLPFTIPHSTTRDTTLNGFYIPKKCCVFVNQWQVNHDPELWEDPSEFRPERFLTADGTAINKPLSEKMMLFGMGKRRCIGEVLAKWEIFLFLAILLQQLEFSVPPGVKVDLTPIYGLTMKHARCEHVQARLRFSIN
The data set is described as follows: Cytochrome P450 inhibition, CYP1A2. Particulars: human liver microsomes. The class given is in vitro ADME. Here is the method: Compounds were solubilized to 10 mM in DMSO. The BGAz compounds were incubated at concentrations of 0.003, 0.009, 0.03, 0.08, 0.25, 0.74, 2.2, 6.7, and 20 μM with CYP1A2, CYP2C9, CYP2C19, and CYP2D6 at 37 °C in the presence of the drug-like probe substrate […] the Phase 1 cofactor NADPH (1 mM). The formation of metabolites of the drug-like probe substrates in the absence and presence of the BGAz compound was monitored by LC-MS/MS, and the IC50 value was determined. All assays had two replicates per compound and included a positive control inhibitor.

Data set [7] is described as follows: HepG2 mitochondrial dysfunction (Glu/Gal cytotoxicity, MTT). The class given is cell-based. Particulars: human, HepG2 cells, 24 h, MTT. Here is the method:
Compounds were solubilized to 30 mM in DMSO. The BGAz compounds were added to the HepG2 cell model in a 96-well microplate in half log dilutions from 100–0.0003 μM (final DMSO concentration 0.3%) using both glucose (DMEM consisting of 25 mM glucose) and galactose (DMEM consisting of 10 mM galactose) media. The compounds were incubated with the cell line for 24 h at 37 °C in a humidified CO2 tissue culture incubator, followed by cell viability staining with MTT (3-(4,5-dimethylthiazol-2-yl)-2.5-diphenyltetrazolium bromide) conversion to the Formazan product, determined by absorbance measurement. The cell viability IC50 was determined in HepG2 glucose and metabolism-modified HepG2 galactose, and the fold change difference between the Glu/Gal IC50 was determined. All experiments were performed in duplicate with the mitochondrial toxicity controls rotenone and Antimycin A and the cytotoxin control tamoxifen.

Data set [8] relates to C. glutamicum. The experiment in a line: MIC, resazurin assay, C. glutamicum wild type. The class given is cell-based, Corynebacterium glutamicum. The settings on record: for C. glutamicum MIC: modified Gompertz function; for MIC50 C. glutamicum / MIC99 C. glutamicum: supplementary MIC data file.
Setting [9] is: resazurin end point assay, modified Gompertz function, three biological replicates, read-out: M. smeg. MIC99.
The mark [10] stands for this setting: preincubated 30 min prior to NADPH, read-out: CYP1A2 [pre-inc] IC50.
Where [11] appears, read: without pre-incubation, read-out: CYP1A2 IC50.
Setting [12] is: galactose medium, read-out: HepG2 Cytotoxicity IC50, Gal.
The mark [13] stands for this setting: glucose medium, read-out: HepG2 Cytotoxicity IC50, Glu.
The mark [14] stands for this setting: supplementary MIC data file, read-out: MIC99 smegmatis.

Converted amounts (≈) assume the structure as drawn. Like-named read-outs stand apart in the source and are kept apart here. Where only a bound is given, the exact number is not on record here.

What is called MIC50 is the lowest concentration that inhibits either 50% of growth or 50% of the strains tested, depending on the study. By fraction unbound is commonly meant free concentration divided by total concentration. Read a low fraction unbound as extensive binding. A word on the microsomal CLint: it is a measure of how fast metabolising enzymes remove a compound, apart from limits set by blood flow. Low readings indicate greater metabolic stability, high ones faster metabolism. By IC50 is commonly meant the concentration that gives 50% inhibition. As for `FC(F)(F)Oc1ccc(C2CC(CN3CCCC3)N2Cc2ccccc2OC(F)(F)F)cc1` (stereo not shown) [BGAz-002], in data set [1], the MIC50 came out at 49 µM (≈ 23.2 µg/mL). The MIC99 worked out at 62 µM (≈ 29.4 µg/mL) in data set [1] (read-out: MIC99 smegmatis), 32 µM (≈ 15.2 µg/mL) in data set [1] (setting [9]), 6.2 µM (≈ 2.94 µg/mL) in data set [2] and 37.8 µM (≈ 17.9 µg/mL) in data set [3]. In data set [4], this compound showed a fraction unbound at 4 h, 5 μM of under 0.01. The compound further showed a microsomal CLint at 1 μM in data set [5] of 166 µL/min/mg. The IC50 in data set [6] (setting [10]) and in data set [6] (setting [11]) was over 20 µM throughout. Further, the IC50 at 24 h in data set [7] (setting [12]) is 65 µM; in data set [7] (setting [13]) it was 38 µM. In data set [8], the C. glutamicum MIC was determined as 50 µM. In data set [8], this compound returned an MIC50 C. glutamicum of 43 µM (≈ 20.4 µg/mL). The compound also had an MIC99 C. glutamicum in data set [8] of 49 µM (≈ 23.2 µg/mL).

As to `Brc1cc(Br)cc(C2CC(CN3CCCC3)N2Cc2ccccc2Br)c1` (stereo not shown) [BGAz-004], the MIC99 came to 14 µM (≈ 7.6 µg/mL) in data set [1] (setting [9]), 14 µM (≈ 7.6 µg/mL) in data set [1] (setting [14]), 3.3 µM (≈ 1.79 µg/mL) in data set [2] and 15.4 µM (≈ 8.36 µg/mL) in data set [3]. The MIC50 in data set [1] (supplementary MIC data file) came out at 6 µM (≈ 3.26 µg/mL). The compound also registered an unbound share (fraction unbound) at 4 h, 5 μM in data set [4] of under 0.01. This compound registered a microsomal CLint at 1 μM in data set [5] of 192 µL/min/mg. In addition, the IC50 in data set [6] (setting [10]) and in data set [6] (setting [11]) was over 20 µM each time. Besides, the IC50 at 24 h in data set [7] (setting [12]) and in data set [7] (setting [13]) was over 100 µM throughout. In addition, in data set [8], the C. glutamicum MIC amounted to 20 µM. The compound also showed an MIC50 C. glutamicum in data set [8] of 12 µM (≈ 6.52 µg/mL). This compound came in with an MIC99 C. glutamicum in data set [8] of 12 µM (≈ 6.52 µg/mL).

As to `CNCC1CC(c2ccc(OC(F)(F)F)cc2)N1Cc1ccccc1OC(F)(F)F` (stereo not shown) [BGAz-005], the MIC99 in data set [1] (setting [9]) came to 24 µM (≈ 10.4 µg/mL); in data set [1] (setting [14]), 24 µM (≈ 10.4 µg/mL); in data set [2], 7.2 µM (≈ 3.13 µg/mL); in data set [3] it was 23.2 µM (≈ 10.1 µg/mL). Moreover, the MIC50 in data set [1] (supplementary MIC data file) stood at 9 µM (≈ 3.91 µg/mL). Further, the fraction unbound at 4 h, 5 μM in data set [4] is under 0.01. The compound further came in with a microsomal CLint at 1 μM in data set [5] of 36 µL/min/mg. In addition, the half-inhibitory concentration (IC50) in data set [6] (setting [10]) and in data set [6] (setting [11]) was over 20 µM throughout. The values for the IC50 at 24 h in data set [7] (setting [12]) and in data set [7] (setting [13]) were 23 µM and 21 µM, respectively. Further, the C. glutamicum MIC in data set [8] came to 12 µM.
